# Data as given in PubChem BioAssay AID2060887 (Molecular Pharmacology Branch, DTP, NCI, 2025).
# System: 782815-120-R-J1-PDC complex spheroid viability
# Experiment: Anticancer human tumor 782815-120-R-J1-PDC patient-derived colon adenocarcinoma cell line growth inhibition [RAS]
# Details: for IC50: curve of first compound; for viability, T/C: stronger effect = lower value
# In short: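 Multi-cell-type spheroids: tumor cells plus HUVEC endothelial cells and mesenchymal stem cells. RAS-pathway inhibitors were combined with targeted agents, each dosed in half-log steps down from clinical Cmax, or from 10 microM when Cmax was unknown.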
# 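Further: spheroids exposed to compounds for 7 days before reading.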
# 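Wherever viability, T/C is given: 100% = DMSO vehicle control viability.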
structure (smiles),measurement,setting,value
O=C(c1ccc(F)c(F)c1Nc1ccc(I)cc1F)N1CC(O)([C@@H]2CCCCN2)C1 + C#Cc1c(F)ccc2cc(O)cc(-c3ncc4c(N5CC6CCC(C5)N6)nc(OCC56CCCN5CC(F)C6)nc4c3F)c12,IC50,second compound 0.0316 µM,84.7 nM
same,IC50,second compound 0.1 µM,57 nM
same,IC50,second compound 0.316 µM,65.9 nM
same,IC50,second compound 1 µM,79 nM
same,IC50,second compound 3.16 µM,54.3 nM
same,IC50,second compound 10 µM,58.3 nM
same,"viability, T/C","second compound 0.0316 µM, first compound 0.00316 µM",95.6%
same,"viability, T/C","second compound 0.0316 µM, first compound 0.01 µM",95%
same,"viability, T/C","second compound 0.0316 µM, first compound 0.0316 µM",66%
same,"viability, T/C","second compound 0.0316 µM, first compound 0.1 µM",47.1%
same,"viability, T/C","second compound 0.0316 µM, first compound 0.316 µM",23.6%
same,"viability, T/C","second compound 0.0316 µM, first compound 1 µM",3.7%
same,"viability, T/C","second compound 0.1 µM, first compound 0.00316 µM",97.4%
same,"viability, T/C","second compound 0.1 µM, first compound 0.01 µM",81%
same,"viability, T/C","second compound 0.1 µM, first compound 0.0316 µM",61.5%
same,"viability, T/C","second compound 0.1 µM, first compound 0.1 µM",38.6%
same,"viability, T/C","second compound 0.1 µM, first compound 0.316 µM",20.8%
same,"viability, T/C","second compound 0.1 µM, first compound 1 µM",4.18%
same,"viability, T/C","second compound 0.316 µM, first compound 0.00316 µM",98.7%
same,"viability, T/C","second compound 0.316 µM, first compound 0.01 µM",88.4%
same,"viability, T/C","second compound 0.316 µM, first compound 0.0316 µM",63.1%
same,"viability, T/C","second compound 0.316 µM, first compound 0.1 µM",42.2%
same,"viability, T/C","second compound 0.316 µM, first compound 0.316 µM",19.1%
same,"viability, T/C","second compound 0.316 µM, first compound 1 µM",2.93%
same,"viability, T/C","second compound 1 µM, first compound 0.00316 µM",97.8%
same,"viability, T/C","second compound 1 µM, first compound 0.01 µM",85.4%
same,"viability, T/C","second compound 1 µM, first compound 0.0316 µM",69.7%
same,"viability, T/C","second compound 1 µM, first compound 0.1 µM",46.5%
same,"viability, T/C","second compound 1 µM, first compound 0.316 µM",18.1%
same,"viability, T/C","second compound 1 µM, first compound 1 µM",1.87%
same,"viability, T/C","second compound 3.16 µM, first compound 0.00316 µM",99.4%
same,"viability, T/C","second compound 3.16 µM, first compound 0.01 µM",85.9%
same,"viability, T/C","second compound 3.16 µM, first compound 0.0316 µM",59.1%
same,"viability, T/C","second compound 3.16 µM, first compound 0.1 µM",40.7%
same,"viability, T/C","second compound 3.16 µM, first compound 0.316 µM",10.4%
same,"viability, T/C","second compound 3.16 µM, first compound 1 µM",0.92%
same,"viability, T/C","second compound 10 µM, first compound 0.00316 µM",98.4%
same,"viability, T/C","second compound 10 µM, first compound 0.01 µM",88.3%
same,"viability, T/C","second compound 10 µM, first compound 0.0316 µM",61.4%
same,"viability, T/C","second compound 10 µM, first compound 0.1 µM",41.2%
same,"viability, T/C","second compound 10 µM, first compound 0.316 µM",10.1%
same,"viability, T/C","second compound 10 µM, first compound 1 µM",0.5%
